#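 96-well plates; 48 h exposure; 5 concentrations. Endpoints by linear interpolation between flanking doses. Not reached: highest tested concentration assigned. TGI is the concentration that stops growth completely.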 Where a SMILES comes first, the peptide text is derived from it. The star is where a group is joined. Boc = CC(C)(C)OC(=O)*
# Columns and labels:
# Assay in all cases: NCI tumour cell line growth inhibition, 48 h
# SF-295 CNS = test system: SF-295 CNS
# DMS 114 small cell lung = test system: DMS 114 small cell lung
# CCRF-CEM leukemia = test system: CCRF-CEM leukemia
# HT29 colon = test system: HT29 colon
# DLD-1 colon = test system: DLD-1 colon
# HCC-2998 colon = test system: HCC-2998 colon
# SR leukemia = test system: SR leukemia
# KM12 colon = test system: KM12 colon
# MALME-3M melanoma = test system: MALME-3M melanoma
# HCT-15 colon = test system: HCT-15 colon
# M19-MEL melanoma = test system: M19-MEL melanoma
# COLO 205 colon = test system: COLO 205 colon
# CAKI-1 renal = test system: CAKI-1 renal
# ACHN renal = test system: ACHN renal
# NCI-H226 lung = test system: NCI-H226 lung
# U251 CNS = test system: U251 CNS
# RXF 393 renal = test system: RXF 393 renal
# A498 renal = test system: A498 renal
# SK-MEL-5 melanoma = test system: SK-MEL-5 melanoma
# SF-539 CNS = test system: SF-539 CNS
# HL-60(TB) leukemia = test system: HL-60(TB) leukemia
# 786-0 renal = test system: 786-0 renal
# RPMI-8226 leukemia = test system: RPMI-8226 leukemia
# OVCAR-4 ovarian = test system: OVCAR-4 ovarian
# DMS 273 small cell lung = test system: DMS 273 small cell lung
# SK-MEL-28 melanoma = test system: SK-MEL-28 melanoma
# HOP-62 NSCLC = test system: HOP-62 NSCLC
# IGROV1 ovarian = test system: IGROV1 ovarian
# SF-268 CNS = test system: SF-268 CNS
# RXF-631 renal = test system: RXF-631 renal
# MOLT-4 leukemia = test system: MOLT-4 leukemia
# LXFL 529 NSCLC = test system: LXFL 529 NSCLC
# SNB-78 CNS = test system: SNB-78 CNS
# SK-OV-3 ovarian = test system: SK-OV-3 ovarian
# OVCAR-3 ovarian = test system: OVCAR-3 ovarian
# SN12C renal = test system: SN12C renal
# SNB-19 CNS = test system: SNB-19 CNS
# NCI-H23 lung = test system: NCI-H23 lung
# KM20L2 colon = test system: KM20L2 colon
# EKVX NSCLC = test system: EKVX NSCLC
# UO-31 renal = test system: UO-31 renal
# UACC-62 melanoma = test system: UACC-62 melanoma
# M14 melanoma = test system: M14 melanoma
# SK-MEL-2 melanoma = test system: SK-MEL-2 melanoma
# HOP-18 NSCLC = test system: HOP-18 NSCLC
# UACC-257 melanoma = test system: UACC-257 melanoma
# K-562 leukemia = test system: K-562 leukemia
# HOP-92 NSCLC = test system: HOP-92 NSCLC
# NCI-H460 lung = test system: NCI-H460 lung
# A549 NSCLC = test system: A549 NSCLC
# HCT-116 colon = test system: HCT-116 colon
# NCI-H522 lung = test system: NCI-H522 lung
# SNB-75 CNS = test system: SNB-75 CNS
# XF 498 CNS = test system: XF 498 CNS
# SW-620 colon = test system: SW-620 colon
# LOX IMVI melanoma = test system: LOX IMVI melanoma
# TK-10 renal = test system: TK-10 renal
# OVCAR-8 ovarian = test system: OVCAR-8 ovarian
# OVCAR-5 ovarian = test system: OVCAR-5 ovarian
# SN12K1 renal = test system: SN12K1 renal
# MCF7 breast = test system: MCF7 breast
# NCI/ADR-RES ovarian = test system: NCI/ADR-RES ovarian
# P388 leukemia = test system: P388 leukemia
# P388/ADR leukemia = test system: P388/ADR leukemia
structure (smiles),measurement,setting,value
CC(C)(C)OC(=O)NC(Cc1ccc(O)cc1)C(=O)N1CCCC1C(=O)O (stereo not drawn) (Boc-Tyr-Pro-OH; configuration not given here),TGI,SF-295 CNS,> 100 µM
same,TGI,DMS 114 small cell lung,> 100 µM
same,TGI,CCRF-CEM leukemia,> 100 µM
same,TGI,HT29 colon,> 100 µM
same,TGI,DLD-1 colon,> 100 µM
same,TGI,HCC-2998 colon,> 100 µM
same,TGI,SR leukemia,> 100 µM
same,TGI,KM12 colon,> 100 µM
same,TGI,MALME-3M melanoma,> 100 µM
same,TGI,HCT-15 colon,> 100 µM
same,TGI,M19-MEL melanoma,> 100 µM
same,TGI,COLO 205 colon,> 100 µM
same,TGI,CAKI-1 renal,> 100 µM
same,TGI,ACHN renal,> 100 µM
same,TGI,NCI-H226 lung,> 100 µM
same,TGI,U251 CNS,> 100 µM
same,TGI,RXF 393 renal,> 100 µM
same,TGI,A498 renal,> 100 µM
same,TGI,SK-MEL-5 melanoma,> 100 µM
same,TGI,SF-539 CNS,> 100 µM
same,TGI,HL-60(TB) leukemia,> 100 µM
same,TGI,786-0 renal,> 100 µM
same,TGI,RPMI-8226 leukemia,> 100 µM
same,TGI,OVCAR-4 ovarian,> 100 µM
same,TGI,DMS 273 small cell lung,> 100 µM
same,TGI,SK-MEL-28 melanoma,> 100 µM
same,TGI,HOP-62 NSCLC,> 100 µM
same,TGI,IGROV1 ovarian,> 100 µM
same,TGI,SF-268 CNS,> 100 µM
same,TGI,RXF-631 renal,> 100 µM
same,TGI,MOLT-4 leukemia,> 100 µM
same,TGI,LXFL 529 NSCLC,> 100 µM
same,TGI,SNB-78 CNS,> 100 µM
same,TGI,SK-OV-3 ovarian,> 100 µM
same,TGI,OVCAR-3 ovarian,> 100 µM
same,TGI,SN12C renal,> 100 µM
same,TGI,SNB-19 CNS,> 100 µM
same,TGI,NCI-H23 lung,> 100 µM
same,TGI,KM20L2 colon,> 100 µM
same,TGI,EKVX NSCLC,> 100 µM
same,TGI,UO-31 renal,> 100 µM
same,TGI,UACC-62 melanoma,> 100 µM
same,TGI,M14 melanoma,> 100 µM
same,TGI,SK-MEL-2 melanoma,> 100 µM
same,TGI,HOP-18 NSCLC,> 100 µM
same,TGI,UACC-257 melanoma,> 100 µM
same,TGI,K-562 leukemia,> 100 µM
same,TGI,HOP-92 NSCLC,> 100 µM
same,TGI,NCI-H460 lung,> 100 µM
same,TGI,A549 NSCLC,> 100 µM
same,TGI,HCT-116 colon,> 100 µM
same,TGI,NCI-H522 lung,> 100 µM
same,TGI,SNB-75 CNS,> 100 µM
same,TGI,XF 498 CNS,> 100 µM
same,TGI,SW-620 colon,> 100 µM
same,TGI,LOX IMVI melanoma,> 100 µM
same,TGI,TK-10 renal,> 100 µM
same,TGI,OVCAR-8 ovarian,> 100 µM
same,TGI,OVCAR-5 ovarian,> 100 µM
O=C(CCl)NNC1=Nc2ccc(Cl)cc2SC1,TGI,SF-295 CNS,28.4 µM
same,TGI,DMS 114 small cell lung,3.86 µM
same,TGI,CCRF-CEM leukemia,3.08 µM
same,TGI,HT29 colon,3.4 µM
same,TGI,DLD-1 colon,3.6 µM
same,TGI,HCC-2998 colon,9.97 µM
same,TGI,KM12 colon,9.94 µM
same,TGI,MALME-3M melanoma,3.31 µM
same,TGI,HCT-15 colon,3.97 µM
same,TGI,M19-MEL melanoma,5.46 µM
same,TGI,COLO 205 colon,3.47 µM
same,TGI,NCI-H226 lung,6.16 µM
same,TGI,U251 CNS,4.28 µM
same,TGI,RXF 393 renal,3.44 µM
same,TGI,A498 renal,35.1 µM
same,TGI,SK-MEL-5 melanoma,6.54 µM
same,TGI,SF-539 CNS,3.77 µM
same,TGI,HL-60(TB) leukemia,3.3 µM
same,TGI,RPMI-8226 leukemia,5.01 µM
same,TGI,OVCAR-4 ovarian,5.63 µM
same,TGI,DMS 273 small cell lung,8.29 µM
same,TGI,SK-MEL-28 melanoma,3.92 µM
same,TGI,HOP-62 NSCLC,31.8 µM
same,TGI,IGROV1 ovarian,3.58 µM
same,TGI,SF-268 CNS,3.92 µM
same,TGI,MOLT-4 leukemia,2.86 µM
same,TGI,SN12K1 renal,7.94 µM
same,TGI,SNB-78 CNS,4.51 µM
same,TGI,SK-OV-3 ovarian,16.7 µM
same,TGI,MCF7 breast,7.62 µM
same,TGI,OVCAR-3 ovarian,3.28 µM
same,TGI,SN12C renal,4.07 µM
same,TGI,NCI/ADR-RES ovarian,3.79 µM
same,TGI,SNB-19 CNS,26.4 µM
same,TGI,NCI-H23 lung,6.27 µM
same,TGI,KM20L2 colon,9.18 µM
same,TGI,EKVX NSCLC,4.08 µM
same,TGI,UO-31 renal,3.49 µM
same,TGI,UACC-62 melanoma,5.46 µM
same,TGI,SK-MEL-2 melanoma,14 µM
same,TGI,HOP-18 NSCLC,3.36 µM
same,TGI,UACC-257 melanoma,7.53 µM
same,TGI,K-562 leukemia,5.34 µM
same,TGI,HOP-92 NSCLC,3.02 µM
same,TGI,NCI-H460 lung,20.4 µM
same,TGI,A549 NSCLC,26.2 µM
same,TGI,HCT-116 colon,3.2 µM
same,TGI,NCI-H522 lung,1.85 µM
same,TGI,SNB-75 CNS,5.14 µM
same,TGI,XF 498 CNS,3.92 µM
same,TGI,SW-620 colon,4.22 µM
same,TGI,LOX IMVI melanoma,2.48 µM
same,TGI,P388 leukemia,1.07 µM
same,TGI,P388/ADR leukemia,3.52 µM
same,TGI,OVCAR-8 ovarian,2.02 µM
same,TGI,OVCAR-5 ovarian,4.16 µM
Clc1ccc(Nc2nc3ccccc3nc2-c2cccs2)cc1Cl,TGI,SF-295 CNS,> 100 µM
same,TGI,CCRF-CEM leukemia,> 100 µM
same,TGI,HT29 colon,> 100 µM
same,TGI,DLD-1 colon,> 100 µM
same,TGI,HCC-2998 colon,> 100 µM
same,TGI,SR leukemia,> 100 µM
same,TGI,MALME-3M melanoma,> 100 µM
same,TGI,HCT-15 colon,> 100 µM
same,TGI,M19-MEL melanoma,> 100 µM
same,TGI,COLO 205 colon,> 100 µM
same,TGI,ACHN renal,> 100 µM
same,TGI,NCI-H226 lung,> 100 µM
same,TGI,RXF 393 renal,89.2 µM
same,TGI,SF-539 CNS,> 100 µM
same,TGI,HL-60(TB) leukemia,78.3 µM
same,TGI,786-0 renal,> 100 µM
same,TGI,RPMI-8226 leukemia,> 100 µM
same,TGI,DMS 273 small cell lung,> 100 µM
same,TGI,SK-MEL-28 melanoma,> 100 µM
same,TGI,HOP-62 NSCLC,> 100 µM
same,TGI,SF-268 CNS,> 100 µM
same,TGI,RXF-631 renal,> 100 µM
same,TGI,MOLT-4 leukemia,> 100 µM
same,TGI,LXFL 529 NSCLC,> 100 µM
same,TGI,SNB-78 CNS,> 100 µM
same,TGI,SK-OV-3 ovarian,> 100 µM
same,TGI,OVCAR-3 ovarian,> 100 µM
same,TGI,SN12C renal,> 100 µM
same,TGI,SNB-19 CNS,> 100 µM
same,TGI,NCI-H23 lung,> 100 µM
same,TGI,KM20L2 colon,> 100 µM
same,TGI,EKVX NSCLC,> 100 µM
same,TGI,UO-31 renal,> 100 µM
same,TGI,UACC-62 melanoma,> 100 µM
same,TGI,SK-MEL-2 melanoma,> 100 µM
same,TGI,HOP-18 NSCLC,> 100 µM
same,TGI,UACC-257 melanoma,> 100 µM
same,TGI,HOP-92 NSCLC,78.8 µM
same,TGI,NCI-H460 lung,> 100 µM
same,TGI,A549 NSCLC,> 100 µM
same,TGI,HCT-116 colon,> 100 µM
same,TGI,SNB-75 CNS,> 100 µM
same,TGI,XF 498 CNS,> 100 µM
same,TGI,SW-620 colon,> 100 µM
same,TGI,TK-10 renal,> 100 µM
same,TGI,OVCAR-8 ovarian,68.6 µM
same,TGI,OVCAR-5 ovarian,> 100 µM

# Source: PubChem BioAssay (NCI)
